Measurements as given in patent US9822147B2, “Methods of treating ophthalmic diseases using NPR-B agonists” (priority 2009, dated 2017).
Numbered stars: 1 amine (or outer) side, 2 acyl side, 3 side chain; on linkers, the order of the positions; unused ones are H or OH. Square brackets hold non-standard residues; d marks the D form. Peptide text beside a SMILES is read from it. * marks the point of attachment. Pro(4R-NH2) = N[C@H]1CN[C@H](C(=O)O)C1; dLys(Me2) = CN(C)CCCC[C@@H](N)C(=O)O; dOrn(Me2) = CN(C)CCC[C@@H](N)C(=O)O; X19 = O=C(C(CC1CCNCC1)N[*:1])[*:2]; X2 = O=C([C@H]1CCCN([*:1])C1)[*:2]; Hyp = O=C(O)[C@@H]1C[C@@H](O)CN1; NHcycloheptyl = C1CCCC(N*)CC1; NMeL = CN[C@@H](CC(C)C)C(=O)O; Octanoyl = CCCCCCCC(=O)*

The compounds below were run against T1, NPR-B (Homo sapiens, UniProt P20594) (assay: NPR-B induced production of cyclic GMP in human glaucoma trabecular meshwork cells (GTM-3)). Settings: group by EC50 and Emax (CNP = 100%); Table 4; read-out: Activity (group), NPR-B activation assayed with GTM-3 cells.
T1 construct: a functional assay using endogenously NPR-B expressing GTM-3 cells; endogenous in cells; host or cells: GTM-3 (human glaucoma trabecular meshwork cells)
T1 sequence (P20594 23-1047): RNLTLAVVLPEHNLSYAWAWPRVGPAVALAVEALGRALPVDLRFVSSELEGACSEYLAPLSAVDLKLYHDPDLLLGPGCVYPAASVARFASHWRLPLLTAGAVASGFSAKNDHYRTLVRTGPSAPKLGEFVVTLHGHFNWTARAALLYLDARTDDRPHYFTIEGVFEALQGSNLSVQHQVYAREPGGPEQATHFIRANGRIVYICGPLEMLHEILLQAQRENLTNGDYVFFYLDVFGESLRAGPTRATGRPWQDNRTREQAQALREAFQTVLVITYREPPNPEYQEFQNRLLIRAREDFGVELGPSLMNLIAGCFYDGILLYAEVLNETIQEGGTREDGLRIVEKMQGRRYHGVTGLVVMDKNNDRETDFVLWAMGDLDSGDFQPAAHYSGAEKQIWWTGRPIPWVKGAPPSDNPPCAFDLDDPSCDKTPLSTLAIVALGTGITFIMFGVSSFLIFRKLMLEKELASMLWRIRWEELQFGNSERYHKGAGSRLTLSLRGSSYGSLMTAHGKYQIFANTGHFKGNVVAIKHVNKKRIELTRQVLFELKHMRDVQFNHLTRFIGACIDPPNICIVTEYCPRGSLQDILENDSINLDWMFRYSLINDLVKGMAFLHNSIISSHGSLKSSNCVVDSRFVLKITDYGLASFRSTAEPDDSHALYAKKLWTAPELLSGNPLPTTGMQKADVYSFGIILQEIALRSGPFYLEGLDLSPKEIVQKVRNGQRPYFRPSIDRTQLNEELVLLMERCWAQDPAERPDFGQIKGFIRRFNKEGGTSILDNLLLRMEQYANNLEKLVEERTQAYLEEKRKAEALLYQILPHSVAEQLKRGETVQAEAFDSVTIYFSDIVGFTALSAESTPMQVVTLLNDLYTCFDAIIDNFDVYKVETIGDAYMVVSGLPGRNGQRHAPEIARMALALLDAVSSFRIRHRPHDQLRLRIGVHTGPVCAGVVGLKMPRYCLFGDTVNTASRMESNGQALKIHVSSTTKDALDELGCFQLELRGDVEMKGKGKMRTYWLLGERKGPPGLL
Type: cell-based

EC50, < 1000 nM:
CCCCCCCC(=O)N1CCC[C@H](C(=O)N[C@@H](Cc2ccccc2)C(=O)N[C@H](CCCN(C)C)C(=O)N[C@@H](CC(C)C)C(=O)N2C[C@H](O)C[C@H]2C(=O)N(C)[C@@H](CC(C)C)C(=O)N[C@@H](CC(=O)O)C(=O)N[C@@H](CCCNC(=N)N)C(=O)NC2CCCCCC2)C1 [JAL-1776, Occ-Sni-Phe-orn(Me2)-Leu-Hyp-Nml-Asp-Arg-Che] (Octanoyl-[X2]F[dOrn(Me2)]L[Hyp][NMeL]DR-NHcycloheptyl)
CCCCCCCC(=O)N1CCC[C@H](C(=O)N[C@@H](Cc2ccccc2)C(=O)N[C@H](CCCCN(C)C)C(=O)N[C@@H](CC(C)C)C(=O)N2C[C@H](O)C[C@H]2C(=O)N(C)[C@@H](CC(C)C)C(=O)N[C@H](C(=O)N[C@@H](CCCNC(=N)N)C(=O)NC2CCCCCC2)C(C)C)C1 [JAL-1779, Occ-Sni-Phe-lys(Me2)-Leu-Hyp-Nml-Val-Arg-Che] (Octanoyl-[X2]F[dLys(Me2)]L[Hyp][NMeL]VR-NHcycloheptyl)
CCCCCCCC(=O)N[C@H](C)C(=O)N[C@@H](Cc1ccccc1)C(=O)N[C@H](CC(C)C)C(=O)N[C@@H](CC(C)C)C(=O)N1CCC[C@H]1C(=O)N(C)[C@@H](CC(C)C)C(=O)N[C@@H](CC(=O)O)C(=O)N[C@@H](CCCNC(=N)N)C(=O)N[C@H](C(N)=O)[C@@H](C)CC [JAL-1039, Occ-ala-Phe-leu-Leu-Pro-Nml-Asp-Arg-Ile-NH2] (HELM PEPTIDE1{[CCCCCCCC(=O)[*:2]].[dA].F.[dL].L.P.[meL].D.R.I.[am]}$$$$V2.0)
CCCCCCCC(=O)N[C@H](C)C(=O)N[C@@H](Cc1ccc(Cl)cc1)C(=O)N[C@H](CC(C)C)C(=O)N[C@@H](CC(C)C)C(=O)N1C[C@H](O)C[C@H]1C(=O)N[C@@H](CC(C)C)C(=O)N[C@@H](CC(=O)O)C(=O)N[C@@H](CCCNC(=N)N)C(=O)N[C@H](C(N)=O)[C@@H](C)CC [JAL-1050, Occ-ala-Pcf-leu-Leu-Hyp-Leu-Asp-Arg-Ile-NH2] (HELM PEPTIDE1{[CCCCCCCC(=O)[*:2]].[dA].[O=C([C@H](Cc1ccc(Cl)cc1)N[*:1])[*:2]].[dL].L.[Hyp].L.D.R.I.[am]}$$$$V2.0)
CCCCCCCC(=O)N1CCC[C@H](C(=O)N[C@@H](Cc2ccccc2)C(=O)N[C@H](CC(C)C)C(=O)N[C@@H](CC(C)C)C(=O)N2C[C@H](N)C[C@H]2C(=O)N(C)[C@@H](CC(C)C)C(=O)N[C@H](C(=O)N[C@@H](CCCNC(=N)N)C(=O)N[C@H](C(N)=O)[C@@H](C)CC)C(C)C)C1 [JAL-1401, Occ-Sni-Phe-leu-Leu-Tap-Nml-Val-Arg-Ile-NH2] (Octanoyl-[X2]F[dL]L[Pro(4R-NH2)][NMeL]VRI-NH2)
CCCCCCCC(=O)N1CCC[C@H](C(=O)N[C@@H](Cc2ccccc2)C(=O)N[C@H](CC(C)C)C(=O)N[C@@H](CC(C)C)C(=O)N2C[C@H](N)C[C@H]2C(=O)N(C)[C@@H](CC(C)C)C(=O)N[C@@H](CC(=O)O)C(=O)N2CCC[C@H]2C(=O)N[C@H](C(N)=O)[C@@H](C)CC)C1 [JAL-1559, Occ-Sni-Phe-leu-Leu-Tap-Nml-Asp-Pro-Ile-NH2] (Octanoyl-[X2]F[dL]L[Pro(4R-NH2)][NMeL]DPI-NH2)
CCCCCCCC(=O)N[C@H](C)C(=O)N[C@@H](Cc1ccccc1)C(=O)N[C@H](CC(C)C)C(=O)N[C@@H](CC(C)C)C(=O)N1C[C@H](O)C[C@H]1C(=O)N(C)[C@@H](CC(C)C)C(=O)N[C@@H](CC(=O)O)C(=O)N[C@@H](CCCNC(=N)N)C(=O)NC(CC)(CC)C(N)=O [JAL-1416, Occ-ala-Phe-leu-Leu-Hyp-Nml-Asp-Arg-Deg-NH2] (HELM PEPTIDE1{[CCCCCCCC(=O)[*:2]].[dA].F.[dL].L.[Hyp].[meL].D.R.[CCC(CC)(N[*:1])C(=O)[*:2]].[am]}$$$$V2.0)
CCCCCCCC(=O)N1CCC[C@H](C(=O)N[C@@H](Cc2ccccc2)C(=O)NC(CC2CCNCC2)C(=O)N[C@@H](CC(C)C)C(=O)N2C[C@H](O)C[C@H]2C(=O)N(C)[C@@H](CC(C)C)C(=O)N[C@@H](CC(=O)O)C(=O)N[C@@H](CCCNC(=N)N)C(=O)N[C@H](C(N)=O)[C@@H](C)CC)C1 (stereo partly drawn) [JAL-1890, Occ-Sni-Phe-Egg-Leu-Hyp-Nml-Asp-Arg-Ile-NH2] (Octanoyl-[X2]F[X19]L[Hyp][NMeL]DRI-NH2)
